What was measured:
[1] = test system: luciferase enzyme/reaction; assay: Effect of detergents and substrate on light output of the luciferase reaction; type: biochemical
From the text: (§1) The aim of the following experiments was to determine the concentrations of Triton-X100 in the Hepes-EDTA buffer on the ratios seen with mycoplasma contaminated K562 cell cultures. Two organisms were investigated, M. hyorhinis and M. orale.
(§2) However, it is still possible to detect positive activity with concentrations as high as 20% (v/v).
(§3) The concentrations of these detergents can be taken up to 10% without loss of sensitivity of mycoplasmal detection.

[2] = test system: M. hyorhinis and M. orale; assay: Effect of detergent concentration on detection of mycoplasma enzyme activities; type: cell-based
From the text: as §1, §2
However, mycoplasma can be lysed with concentrations of Triton X-100 at around 1-2%.
as §3

[3] = test system: E. coli strain JM109 cells; assay: Effect of Triton-X100 on carbamate or acetate kinase activity from bacterial cells; type: cell-based
[4] = test system: M. pneumoniae, M. hominis, M. fermentans, M. genitalium and U. urealyticum; conditions: variable responses between species; cited from earlier work
[5] = target: luciferase (Photinus pyralis, UniProt P08659); conditions: cited from earlier work
Chain of luciferase (P08659 whole entry): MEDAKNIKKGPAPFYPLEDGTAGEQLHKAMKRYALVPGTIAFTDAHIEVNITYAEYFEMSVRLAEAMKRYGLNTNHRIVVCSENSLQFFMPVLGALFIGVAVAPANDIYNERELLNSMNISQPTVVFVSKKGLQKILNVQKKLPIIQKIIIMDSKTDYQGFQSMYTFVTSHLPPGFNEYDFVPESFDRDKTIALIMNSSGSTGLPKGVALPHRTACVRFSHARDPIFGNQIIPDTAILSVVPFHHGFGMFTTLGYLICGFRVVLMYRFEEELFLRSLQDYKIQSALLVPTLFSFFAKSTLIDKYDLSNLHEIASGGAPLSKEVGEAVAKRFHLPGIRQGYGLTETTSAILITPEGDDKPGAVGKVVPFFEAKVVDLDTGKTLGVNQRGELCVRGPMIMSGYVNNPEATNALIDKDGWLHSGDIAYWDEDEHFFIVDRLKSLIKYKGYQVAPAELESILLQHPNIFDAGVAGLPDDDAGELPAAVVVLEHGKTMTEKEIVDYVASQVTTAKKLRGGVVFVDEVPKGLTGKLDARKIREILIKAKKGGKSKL

With Triton-X100 the “detergent concentration above which light output drops” value ([1]; K562 cells infected with M. hyorhinis and M. orale, Hepes-EDTA buffer) was 4-5%, the “concentration that lyses mycoplasma” value [2] was 1-2% and the “highest detergent concentration at which positive activity is still detected” value ([2]; K562 cells infected with M. hyorhinis and M. orale) was 20 % (v/v). For the same molecule, the “carbamate or acetate kinase activity” value ([3]; Triton-X100 concentrations of the FIG. 10 experiments) was “did not result in any detectable carbamate or acetate kinase activity” and the “ratio B/A” value ([3]; Triton-X100 increased to 1-2%) was “did not result in positive ratios above 1”.
For `CO/N=C1\CN(c2nc3c(cc2F)c(=O)c(C(=O)O)cn3C2CC2)CC1CN` (centres unmarked) [gemifloxacin], the “performance against mycoplasma compared with other antibiotics” value [4] is given as “performed better than tetracycline”.
In the case of `Nc1ncnc2c1ncn2[C@H]1C[C@H](O)[C@@H](COP(=O)(O)OP(=O)(O)OP(=O)(O)O)O1` [deoxy-ATP], the “light produced relative to the light generated by ATP” value [5] is listed as “less than 2%”.
With `CC(=O)OP(=O)(O)O` [Acetyl phosphate] the “concentration above which light output is reduced” value ([1]; assay still performs) was “above 10”.

From patent US7585644B2, “Mycopolasma detecting methods and materials” (priority 2003, dated 2009)
